For one data set, the system named is Cos 7 cells. In words: Cell cytotoxicity CC50 and Therapeutic Index (CC50:EC50). Conditions: drug titration between 2 nM and 20 μM.

8 compounds from US11725005B2, “Compositions and methods for inhibiting kinases” (Inhibikase Therapeutics, Inc., priority 2015, dated 2023) can be followed below.

In the case of `Cc1ccc(NC(=O)c2ccc(CN3CCN(C)CC3)cc2)cc1Nc1nccc(-c2cncc(-c3oncc3C)c2)n1` [Compound 809], the “Cell cytotoxicity: no toxicity up to” value with Cos 7 cells is above 20 µM.
For `Cc1ccnc(-c2cncc(-c3ccnc(Nc4cc(NC(=O)c5ccc(CN6CCN(C)CC6)cc5)ccc4C)n3)c2)c1` [Compound 830], the “Cell cytotoxicity: no toxicity up to” value with Cos 7 cells was above 20 µM. In addition, in the data set on PDGFRa, the “Percent inhibition PDGFRa” value was 100.
Turning to `Cc1ccc(NC(=O)c2ccc(CN3CCN(C)CC3)cc2)cc1Nc1nccc(-c2cncc(-c3ccn(C)n3)c2)n1` [Compound 832], the “Cell cytotoxicity: no toxicity up to” value in the data set on Cos 7 cells is above 20 µM. Also, in the data set with PDGFRa, the “Percent inhibition PDGFRa” value is recorded as 100.
On to `Cc1cc(-c2cncc(-c3ccnc(Nc4cc(NC(=O)c5ccc(CN6CCN(C)CC6)cc5)ccc4C)n3)c2)sn1` [Compound 8190], for which the “Cell cytotoxicity: no toxicity up to” value in the data set with Cos 7 cells was above 20 µM. In addition, the “Percent inhibition PDGFRa” value in the data set with PDGFRa amounted to 100.
For the compound `Cc1ccc(NC(=O)c2ccc(CN3CCN(C)CC3)cc2)cc1Nc1nccc(-c2cncc(-c3nncs3)c2)n1` [Compound 8250], in the data set on Cos 7 cells, the “Cell cytotoxicity: no toxicity up to” value was above 20 µM. The “Percent inhibition PDGFRa” value in the data set on PDGFRa was found to be 100.
On to `Cc1ccc(NC(=O)c2ccc(CN3CCN(C)CC3)cc2)cc1Nc1nccc(-c2cncc(-c3nccs3)c2)n1` [Compound 8270], for which, in the data set on Cos 7 cells, the “Cell cytotoxicity: no toxicity up to” value is above 20 µM.
On to `Cc1cnc(-c2cncc(-c3ccnc(Nc4cc(NC(=O)c5ccc(CN6CCN(C)CC6)cc5)ccc4C)n3)c2)s1` [Compound 8280], for which the “Cell cytotoxicity: no toxicity up to” value with Cos 7 cells was above 20 µM. For the same compound, the “Percent inhibition PDGFRa” value in the data set on PDGFRa stood at 100.
Regarding `Cc1csc(-c2cncc(-c3ccnc(Nc4cc(NC(=O)c5ccc(CN6CCN(C)CC6)cc5)ccc4C)n3)c2)n1` [Compound 8290], in the data set with PDGFRa, the “Percent inhibition PDGFRa” value was 100.
